Results on 24 compounds are retold here after patent US5434186A, “Carboxylic acid leukotriene B4 antagonists” (Hoffmann-La Roche Inc., priority 1993, dated 1995).

One may read the Ki as a measure of affinity in units of concentration, obtained from inhibition or displacement.

One experiment addresses T1, LTB4 Receptor (Homo sapiens, UniProt Q15722).
T1 construct: Isolated human neutrophils in Gey's salt solution; endogenous in cells; host or cells: human neutrophils isolated from blood (90-95% neutrophils)
The experiment is described as follows: LTB4 Receptor Binding Assay (inhibition of 3H-LTB4 binding, human neutrophils). To be noted: 0.5 nM 3H-LTB4, 45 minutes on ice, isolated human neutrophils. As to the method: Binding assays can be performed in microtiter wells. Isolated human neutrophils in Gey's salt solution are incubated on ice for 45 minutes with 0.5 nM ^3 H-LTB4 in the presence or absence of test compounds. Assays are terminated by adding 12 ml ice cold 50 mM Tris (pH 7.4) followed by rapid filtration under vacuum through GF/C filters. Radioactivity is determined by scintillation counting. Non specific binding is defined as the binding not displaced by 100 fold excess of unlabelled LTB4. Specific binding is defined as the difference between total binding and non-specific binding. Non linear analysis of the binding data is performed using LIGAND (Munson and Rodbard, 1980). Ki (Inhibition Constant) values were determined using the Cheng-Prusoff relationship (Cheng and Prusoff, 1973).
Human neutrophils are prepared from citrated or heparinized blood. The blood was diluted 1:1 with Hank's balanced salt solution (HBSS) minus calcium and magnesium and underlayed with 10 ml lymphocyte separation medium (Organon Teknika), followed by centrifugation at 500× g for 30 min., at room temperature. Supernatants are removed down to the red blood cell pellet. HBSS minus calcium and magnesium are added to give 25 ml. To this are added 25 ml 6% dextran in 0.85% NaCl. Samples are mixed and allowed to stand 20 min at room temperature. Supernatants are removed and centrifuged at 500× g for 5 min at 4° C. Pellets are resuspended with 20 ml 0.2% saline for 20 sec followed by the addition of 20 ml 1.6% saline. Samples are centrifuged at 500× g for 5 min at 4° C. The lysis is repeated and the cells (90-95% neutrophils) are resuspended at 2× 10^6 cell/ml in GEY's salt solution.

In experiment [1] the test system is LTB4 -induced bronchoconstriction. Briefly: Guinea Pig Bronchoconstriction In Vivo (LTB4-induced). More on the design: species or system guinea pig (Hartley strain). To be noted: Cavia porcellus, iv, i.v. five minutes prior to LTB4 (1 μg/kg i.v.), read-out: ID50 (mg/kg), i.v., LTB4-induced bronchoconstriction. The method, then: Male guinea pigs (Hartley strain) weighing 300 to 500 g are anesthetized with urethane (2 g/kg) intraperitoneally and a polyethylene cannula is inserted into the jugular vein for drug administration. Tracheal pressure is recorded from a cannula inserted into the trachea and connected to a Gould P23ID pressure transducer. After surgical preparation of the animals, a period of time is allowed for pulmonary functions to stabilize. The test compound is administered intravenously five minutes prior to leukotriene B4 administration according to the following protocol: Animals are paralyzed with succinylcholine (1.2 mg/kg i.v.) and mechanically respirated (Harvard rodent respirator) at 40 breaths/minute and 2.5 cc tidal volume. Propranolol (0.1 mg/kg) is then administered intravenously one minute prior to leukotriene B4 administration. Animals are then challenged with an intermediate constrictory dose of leukotriene B4 (1 μg/kg) delivered intravenously.
The change (cm H2 O) between pre and peak ventilatory pressure readings is averaged for five control and five drug treated animals. The percent inhibition is calculated from the formula:
((Control-Drug Treated)/Control)×100
When representative compounds of formula I of the invention were utilized as the test compounds the following results were obtained: […]

T1 sequence (Q15722 whole entry): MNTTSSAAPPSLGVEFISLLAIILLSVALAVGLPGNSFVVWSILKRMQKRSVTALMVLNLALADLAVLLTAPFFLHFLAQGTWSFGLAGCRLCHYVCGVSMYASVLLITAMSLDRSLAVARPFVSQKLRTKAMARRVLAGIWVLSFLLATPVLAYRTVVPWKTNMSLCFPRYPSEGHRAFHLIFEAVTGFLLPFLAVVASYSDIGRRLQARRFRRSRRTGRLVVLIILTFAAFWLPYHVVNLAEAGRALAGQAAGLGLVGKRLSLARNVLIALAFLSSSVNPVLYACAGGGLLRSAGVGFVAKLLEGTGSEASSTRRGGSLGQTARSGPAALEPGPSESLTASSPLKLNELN

`CCCc1c(OCCCCCOc2ccc(C(=O)c3ccc(C(=O)O)cc3)cc2CCC(=O)O)ccc2c1OCCC2=O` [Example 85, 5-[(4-Carboxyphenyl)carbonyl]-2-[5-[(3,4-dihydro-4-oxo-8-propyl-2H-1-benzopyran-7-yl)oxy]pentyloxy]benzenepropanoic Acid] yielded a Ki on LTB4 Receptor of 3 nM. Also, in experiment [1], the ED50 stood at 6.23 mg/kg.

For the compound `CCCc1c(OCCCCCCc2cccc(OCCCCCCCCC(=O)O)c2CCC(=O)O)ccc2c1OCCC2=O` [Example 188, 2-[(8-Carboxyoctyl)oxy]-6-[6-[(3,4-dihydro-4-oxo-8-propyl-2H-1-benzopyran-7-yl)oxy]hexyl]benzenepropanoic Acid], the ED50 in experiment [1] was 0.9 mg/kg.

For the compound `CCCc1c(OCCCCCOc2ccc3oc(C(=O)O)cc3c2)ccc2c1OCCC2=O` [Example 26, 5-[5-[(3,4-Dihydro-4-oxo-8-propyl-2H-1-benzopyran-7-yl)oxy]pentyloxy]-2-benzofurancarboxylic Acid], at LTB4 Receptor, the Ki came out at 270 nM.

The compound `CCCc1c(OCCCCCOc2cccc(CCC(=O)O)c2)ccc2c1OCCC2=O` [Example 68, 3-[5-[(3,4-Dihydro-4-oxo-8-propyl-2H-1-benzopyran-7-yl)oxy]pentyloxy]benzenepropanoic Acid] had a Ki on LTB4 Receptor of 60 nM. In addition, the ED50 in experiment [1] was found to be 3.56 mg/kg.

For `CCCc1c(OCCCCCOc2ccc3nc(CCC(=O)O)ccc3c2CCC(=O)O)ccc2c1OCCC2=O` [Example 238, 6-[[5-[(3,4-Dihydro-4-oxo-8-propyl-2H-1-benzopyran-7-yl)oxy]pentyl]oxy]-2,5-quinolinedipropanoic Acid], the affinity at LTB4 Receptor, expressed as Ki, was 2 nM. The ED50 in experiment [1] is 1.24 mg/kg.

Regarding `CCCc1c(OCCCCCOc2ccccc2CCC(=O)O)ccc2c1CCCC2=O` [Example 10, 2-[[5-(5-Oxo-1-propyl-5,6,7,8-tetrahydro-2-naphthalenyl)oxy]pentyloxy]benzenepropanoic Acid], in experiment [1], the ED50 is 2.08 mg/kg.

Consider `CCCc1c(OCCCCCCc2cccc(OCCCC(=O)O)c2CCC(=O)O)ccc2c1OCCC2=O` [Example 205, 2-(3-Carboxypropoxy)-6-[6-[(3,4-dihydro-4-oxo-8-propyl-2H-1-benzopyran-7-yl)oxy]hexyl]benzenepropanoic Acid], for which the ED50 in experiment [1] was determined as 0.26 mg/kg.

`CCCc1c(OCCCCCCc2ccc(C(=O)CCCC(=O)O)cc2CCC(=O)O)ccc2c1OCCC2=O` [Example 211, 3-(2-Carboxyethyl)-4-[6-[(3,4-dihydro-4-oxo-8-propyl-2H-1-benzopyran-7-yl)oxy]hexyl]-δ-oxobenzenepentanoic Acid] gave a Ki at LTB4 Receptor of 0.8 nM. Also, the ED50 in experiment [1] worked out at 2.39 mg/kg.

Compound `CCCc1c(C#CCCCCOc2ccccc2CCC(=O)O)ccc2c1OCCC2=O` [Example 107, 2-[6-(3,4-Dihydro-4-oxo-8-propyl-2H-1-benzopyran-7-yl)-5-hexynyloxy]benzenepropanoic Acid] registered a Ki on LTB4 Receptor of 50 nM.

For the compound `CCCc1c(OCCCCCOc2ccccc2OCC(=O)O)ccc2c1OCCC2=O` [Example 13, [2-[5-[(3,4-Dihydro-4-oxo-8-propyl-2H-1-benzopyran-7-yl)oxy]pentyloxy]phenoxy]acetic Acid], the Ki on LTB4 Receptor came out at 70 nM. Moreover, in experiment [1], the ED50 was found to be 1.85 mg/kg.

For the compound `CCCc1c(OCCCCCCc2cccc(OCCCCCCCC(=O)O)c2CCC(=O)O)ccc2c1OCCC2=O` [Example 184, 2-[(7-Carboxyheptyl)oxy]-6-[6-[(3,4-dihydro-4-oxo-8-propyl-2H-1-benzopyran-7-yl)oxy]hexyl]benzenepropanoic Acid], the ED50 in experiment [1] came out at 0.17 mg/kg.

At LTB4 Receptor, `CCCc1c(OCCCCCCc2ccc(OCCCC(=O)O)cc2/C=C/C(=O)O)ccc2c1OCCC2=O` [Example 114, (E)-4-[3-(2-carboxyethenyl)-4-[6-[(3,4-dihydro-4-oxo-8-propyl-2H-1-benzopyran-7-yl)oxy]hexyl]phenoxy]butanoic acid] displayed a Ki of 1 nM.

As for `CCCc1c(OCCCCCCc2cccc(OCCCCCC(=O)O)c2CCC(=O)O)ccc2c1CCCC2=O` [Example 206, 2-[(5-Carboxypentyl)oxy]-6-[6-[(5,6,7,8-tetrahydro-5-oxo-1-propyl-2-naphthalenyl)oxy]hexyl]benzenepropanoic Acid], in experiment [1], the ED50 stood at 0.12 mg/kg.

Regarding `CCCc1c(OCCCCCOc2ccccc2CCC(=O)O)ccc2c1OCC2=O` [Example 40, 2-[5-[(2,3-Dihydro-3-oxo-7-propylbenzofuran-6-yl)oxy]pentyloxy]benzenepropanoic Acid], on LTB4 Receptor, affinity was put at a Ki of 75 nM.

At LTB4 Receptor, `CCCc1c(CCCCCCOc2ccccc2CCC(=O)O)ccc2c1OCCC2=O` [Example 106, 2-[6-(3,4-Dihydro-4-oxo-8-propyl-2H-1-benzopyran-7-yl)hexyloxy]benzenepropanoic Acid] came in with a Ki of 20 nM.

In the case of `CCCc1c(OCCCCCCCCOc2ccc(C(=O)c3cccc(C(=O)O)c3)cc2CCC(=O)O)ccc2c1OCCC2=O` [Example 83, 5-[(3-Carboxyphenyl)carbonyl]-2-[8-[(3,4-dihydro-4-oxo-8-propyl-2H-1-benzopyran-7-yl)oxy]octyloxy]benzenepropanoic Acid], at LTB4 Receptor, the Ki was determined as 3 nM.

As to `CCCc1ccc2c(c1OCCCCCOc1ccccc1CCC(=O)O)CCCC2=O` [Example 79, 2-[5-[(5-Oxo-2-propyl-5,6,7,8-tetrahydro-1-naphthalenyl)oxy]pentyloxy]benzenepropanoic Acid], at LTB4 Receptor, the affinity corresponds to a Ki of 1500 nM.

Regarding `CCCc1c(OCCCCCOc2cccc3cc(C(=O)O)oc23)ccc2c1OCCC2=O` [Example 19, 7-[5-[(3,4-Dihydro-4-oxo-8-propyl-2H-1-benzopyran-7-yl)oxy]pentyloxy]-2-benzofurancarboxylic Acid], on LTB4 Receptor, the Ki came to 250 nM.

At LTB4 Receptor, `CCCc1c(OCCCCCOc2ccccc2/C=C/C(=O)O)ccc2c1OCCC2=O` [Example 109, (E)-3-[2-[5-[(3,4-Dihydro-4-oxo-8-propyl-2H-1-benzopyran-7-yl)oxy]pentyloxy]phenyl]-2-propenoic Acid] came in with a Ki of 80 nM.

The compound `CCCc1c(OCCCCCOc2ccc(C(=O)c3ccccc3CC(=O)O)cc2CCC(=O)O)ccc2c1OCCC2=O` [Example 95, 5-[[2-(Carboxymethyl)phenyl]carbonyl]-2-[5-[(3,4-dihydro-4-oxo-8-propyl-2H-1-benzopyran-7-yl)oxy]pentyloxy]benzenepropanoic Acid] registered a Ki at LTB4 Receptor of 8 nM.

Turning to `CCCc1c(OCCCCCOc2ccc(C(=O)Cc3ccccc3C(=O)O)cc2CCC(=O)O)ccc2c1OCCC2=O` [Example 92, 5-[2-(2-Carboxyphenyl)-1-oxoethyl]-2-[5-[(3,4-dihydro-4-oxo-8-propyl-2H-1-benzopyran-7-yl)oxy]pentyloxy]benzenepropanoic Acid], the Ki on LTB4 Receptor is 5 nM.

In turn, `CCCc1c(OCCCC/C=C/c2ccc(C(=O)c3cccc(C(=O)O)c3)cc2CCC(=O)O)ccc2c1OCCC2=O` [Example 101, (E)-5-[(3-Carboxyphenyl)carbonyl]-2-[6-[(3,4-dihydro-4-oxo-8-propyl-2H-1-benzopyran-7-yl)oxy]-1-hexenyl]benzenepropanoic Acid] returned a Ki on LTB4 Receptor of 4 nM.

Compound `CCCc1c(OCCCCCc2ccccc2CCC(=O)O)ccc2c1OCCC2=O` [Example 8, 2-[5-[(3,4-Dihydro-4-oxo-8-propyl-2H-1-benzopyran-7-yl)oxy]pentyl]benzenepropanoic Acid] had a Ki on LTB4 Receptor of 63 nM.

In turn, `CCCc1c(OCCCCCCCOc2ccc(C(=O)c3cccc(C(=O)O)c3)cc2CCC(=O)O)ccc2c1OCCC2=O` [Example 81, 5-[(3-Carboxyphenyl)carbonyl]-2-[7-[(3,4-dihydro-4-oxo-8-propyl-2H-1-benzopyran-7-yl)oxy]heptyloxy]benzenepropanoic Acid] showed a Ki at LTB4 Receptor of 3 nM.
